Experimental data reported in PubChem BioAssay AID256 (DTP/NCI, 2004).
Where “and” joins values, the source holds several entries; their conditions need not be identical. Equal entries are not always repeated. Inconclusive results and toxic doses are left out. Rule for the calls: active = survival T/C of 150% or more; inactive = T/C below 125% in these data.

System: CD2F1 mice, L1210 leukemia ip, survival T/C
Experiment: NCI In Vivo Anticancer Drug Screen. Data for tumor model L1210 Leukemia (intraperitoneal) in CD2F1 (CDF1) mice
Settings: endpoint: mean survival time, higher = longer survival
Procedure, shortened: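 Mice carrying a transplanted tumor received test compound or vehicle alone. The value is the measurement in the treated group divided by that in the vehicle-treated control group.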

[1] = dose: 25.0 mg/kg/injection, schedule: Q04DX002 (ip), vehicle: saline with Tween-80
[2] = dose: 100.0 mg/kg/injection, schedule: Q04DX002 (ip), vehicle: saline with Tween-80
[3] = dose: 100.0 mg/kg/injection, schedule: Q01DX009 (ip), vehicle: saline with Tween-80
[4] = dose: 100.0 mg/kg/injection, schedule: Q04DX003 (ip), vehicle: saline with Tween-80
[5] = dose: 200.0 mg/kg/injection, schedule: Q04DX003 (ip), vehicle: saline with Tween-80
[6] = dose: 400.0 mg/kg/injection, schedule: Q04DX003 (ip), vehicle: saline with Tween-80
[7] = dose: 100.0 mg/kg/injection, schedule: Q01DX001 (ip), vehicle: saline
[8] = dose: 200.0 mg/kg/injection, schedule: Q01DX001 (ip), vehicle: saline
[9] = dose: 400.0 mg/kg/injection, schedule: Q01DX001 (ip), vehicle: saline
[10] = dose: 200.0 mg/kg/injection, schedule: Q01DX009 (ip), vehicle: saline with Tween-80
[11] = dose: 400.0 mg/kg/injection, schedule: Q01DX009 (ip), vehicle: saline with Tween-80
[12] = dose: 50.0 mg/kg/injection, schedule: Q01DX009 (ip), vehicle: saline with Tween-80
[13] = dose: 100.0 mg/kg/injection, schedule: Q01DX001 (ip), vehicle: saline with Tween-80
[14] = dose: 200.0 mg/kg/injection, schedule: Q01DX001 (ip), vehicle: saline with Tween-80
[15] = dose: 200.0 mg/kg/injection, schedule: Q04DX002 (ip), vehicle: saline with Tween-80
[16] = dose: 400.0 mg/kg/injection, schedule: Q01DX001 (ip), vehicle: saline with Tween-80
[17] = dose: 400.0 mg/kg/injection, schedule: Q04DX002 (ip), vehicle: saline with Tween-80
[18] = dose: 100.0 mg/kg/injection, schedule: Q01DX009 (ip), vehicle: Klucel (hydroxypropylcellulose) (HPC)
[19] = dose: 6.25 mg/kg/injection, schedule: Q01DX009 (ip), vehicle: Klucel (hydroxypropylcellulose) (HPC)
[20] = dose: 12.5 mg/kg/injection, schedule: Q01DX009 (ip), vehicle: Klucel (hydroxypropylcellulose) (HPC)
[21] = dose: 25.0 mg/kg/injection, schedule: Q01DX009 (ip), vehicle: Klucel (hydroxypropylcellulose) (HPC)
[22] = dose: 50.0 mg/kg/injection, schedule: Q01DX009 (ip), vehicle: Klucel (hydroxypropylcellulose) (HPC)

Measured: T/C

N.N.N.N.O=C([O-])C([O-])C(O)C(=O)[O-].O=[N+]([O-])[O-].[Co+3] (configuration not stated)
inactive: [1] 104 % of control | dose: 50.0 mg/kg/injection, schedule: Q04DX002 (ip), vehicle: saline with Tween-80 110 % of control | [2] 110 % of control

Cc1ccc(O[Si](C)(C)C)cc1
inactive: [3] 100 % of control | [4] 103 % of control | [5] 87 % of control | [6] 89 % of control

CC(CN1c2ccccc2Sc2ccccc21)N(C)CCO (configuration not stated)
inactive: dose: 50.0 mg/kg/injection, schedule: Q01DX001 (ip), vehicle: saline 101 % of control | [7] 101 % of control | [8] 97 % of control | [9] 97 % of control

O=C1C=CC(=O)N1c1ccc(Cl)cc1 (tested in a mixture with another compound)
inactive: [3] 93 % of control | [10] 87 % of control | [11] 98 % of control

Cc1n[nH]c2ccc(Br)cc2c1=O
inactive: [12] 97 % of control | [3] 91 % of control | [4] 101 % of control | [10] 101 % of control | [5] 87 % of control

O=C1CSC(=S)N1Cc1ccccc1
inactive: [4] 101 % of control | [5] 97 % of control | [6] 97 % of control

Nc1ncnc2c1ncn2CCC(=O)O
inactive: [13] 94 % of control | [2] 105 % of control | [14] 92 % of control | [15] 97 % of control | [16] 90 % of control | [17] 105 % of control

NC(=O)c1[nH]cnc1/N=N/N(CCCl)Cc1ccccc1
active: dose: 66.0 mg/kg/injection, schedule: Q01DX009 (ip), vehicle: Klucel (hydroxypropylcellulose) (HPC) 180 % of control | [18] 264 % of control | dose: 150.0 mg/kg/injection, schedule: Q01DX009 (ip), vehicle: Klucel (hydroxypropylcellulose) (HPC) 264 % of control | dose: 200.0 mg/kg/injection, schedule: Q04DX003 (ip), vehicle: Klucel (hydroxypropylcellulose) (HPC) 227 % of control | dose: 400.0 mg/kg/injection, schedule: Q04DX003 (ip), vehicle: Klucel (hydroxypropylcellulose) (HPC) 268 % of control

Cc1cc(C)c(S(=O)O)c(C)c1
inactive: [7] 103 % of control | [8] 103 % of control | [9] 103 % of control

O=C(NC(=S)Nc1ccccc1Cl)c1ccc(Cl)cc1
inactive: [2] 103 % of control | [15] 88 % of control | [17] 88 % of control

Cc1cc(C)c(F)[c]([Hg][Br])c1N
inactive: dose: 3.13 mg/kg/injection, schedule: Q01DX009 (ip), vehicle: Klucel (hydroxypropylcellulose) (HPC) 102 % of control | [19] 113 % of control | [20] 105 % of control

CCCCCCCCCC[n+]1cccc(C(N)=O)c1
inactive: dose: 5.0 mg/kg/injection, schedule: Q01DX009 (ip), vehicle: saline with Tween-80 97 % of control | dose: 10.0 mg/kg/injection, schedule: Q01DX009 (ip), vehicle: saline with Tween-80 97 % of control | dose: 20.0 mg/kg/injection, schedule: Q01DX009 (ip), vehicle: saline with Tween-80 100 % of control

CC1(C)N=C(N)N=C(N)N1c1ccc(OCCNS(=O)(=O)c2cccc(S(=O)(=O)F)c2)c(Cl)c1
inactive: dose: 12.5 mg/kg/injection, schedule: Q01DX009 (ip), vehicle: saline with Tween-80 108 % of control | dose: 25.0 mg/kg/injection, schedule: Q01DX009 (ip), vehicle: saline with Tween-80 110 % of control | [12] 117 % of control | [13] 97 % of control | [2] 97 % of control | [14] 107 % of control | [10] 94 % of control | [15] 108 % of control | [16] 111 % of control | [17] 101 % of control
active: [3] 164 % of control

CCOC(=O)C(C)C(=O)NCc1ccccc1 (configuration not stated)
inactive: [21] 95 % of control | [22] 96 % of control | [18] 96 % of control | dose: 200.0 mg/kg/injection, schedule: Q01DX009 (ip), vehicle: Klucel (hydroxypropylcellulose) (HPC) 93 % of control | dose: 400.0 mg/kg/injection, schedule: Q01DX009 (ip), vehicle: Klucel (hydroxypropylcellulose) (HPC) 98 % of control

CCOP(=S)(N1CC1)N1CC1
inactive: dose: 100.0 mg/kg/injection, schedule: Q01DX009 (ip), vehicle: other 94 % of control | dose: 200.0 mg/kg/injection, schedule: Q01DX009 (ip), vehicle: other 100 % of control | dose: 400.0 mg/kg/injection, schedule: Q01DX009 (ip), vehicle: other 90 % of control

Nc1nc(Cl)c2nnn(C3CC(O)C(CO)C3)c2n1 (configuration not stated)
inactive: [19] 117 % of control | [20] 106 % of control | [21] 117 % of control

O=c1sc(N=Nc2ccccc2)nn1-c1ccccc1
inactive: dose: 100.0 mg/kg/injection, schedule: Q04DX003 (ip), vehicle: saline 92 % of control | dose: 200.0 mg/kg/injection, schedule: Q04DX003 (ip), vehicle: saline 91 % of control

CCc1ccc(C(=O)CCCCl)cc1
inactive: [3] 104 % of control | [10] 100 % of control | [11] 100 % of control

CC(C)CC#N
inactive: [3] 100 % of control | [4] 101 % of control | [5] 104 % of control | [6] 104 % of control

O=C(NO)c1ccc(O)cc1
inactive: dose: 267.0 mg/kg/injection, schedule: Q01DX009 (ip), vehicle: saline 120 % of control

C=CC[P+](c1ccccc1)(c1ccccc1)c1ccccc1
inactive: dose: 6.25 mg/kg/injection, schedule: Q01DX001 (ip), vehicle: saline 101 % of control | dose: 12.5 mg/kg/injection, schedule: Q01DX001 (ip), vehicle: saline 100 % of control and 112 % of control | dose: 25.0 mg/kg/injection, schedule: Q01DX001 (ip), vehicle: saline 96 % of control and 103 % of control

Cc1cc[n+](-c2c3c(nc4ccccc24)-c2ccccc2C(C)(C)C3)cc1
inactive: dose: 25.0 mg/kg/injection, schedule: Q04DX003 (ip), vehicle: saline sonified 96 % of control | dose: 50.0 mg/kg/injection, schedule: Q04DX003 (ip), vehicle: saline sonified 102 % of control | [13] 96 % of control

CC(=O)N=C1C=C(NC(C)=O)C(=O)c2ncccc21
inactive: dose: 6.25 mg/kg/injection, schedule: Q04DX002 (ip), vehicle: saline with Tween-80 95 % of control | dose: 12.5 mg/kg/injection, schedule: Q04DX002 (ip), vehicle: saline with Tween-80 119 % of control | [1] 119 % of control

C1CCC2NN=NC2C1 (configuration not stated)
inactive: [13] 104 % of control | [14] 98 % of control

CCn1c(N)c(N)c(=O)[nH]c1=S
inactive: [3] 94 % of control | [10] 98 % of control | [11] 88 % of control

O=CNc1cccc(Cl)c1
inactive: [3] 96 % of control | [4] 100 % of control | [10] 95 % of control | [5] 90 % of control | [11] 96 % of control | [6] 90 % of control

CC(=O)OCc1cc(=O)n(C)c2c3c4c(cc12)c(C)cc(=O)n4CO3
inactive: [19] 100 % of control | [20] 104 % of control and 112 % of control | [21] 112 % of control and 114 % of control and 109 % of control | [22] 119 % of control | [18] 90 % of control

C=C1CC23CC[C@H]4[C@@](C)(CCC[C@@]4(C)C(=O)O)[C@@H]2CC[C@]1(OC1OC(COC(C)=O)C(OC(C)=O)C(OC(C)=O)C1OC1OC(COC(C)=O)C(OC(C)=O)C(OC(C)=O)C1OC(C)=O)C3 (some centres not stated)
inactive: [2] 93 % of control | [15] 89 % of control | [17] 96 % of control

CCN(CC)CCCC(C)Nc1nnc2c(=O)n(C)c(=O)n(C)c2n1 (configuration not stated)
inactive: dose: 75.0 mg/kg/injection, schedule: Q01DX001 (ip), vehicle: saline 95 % of control | dose: 150.0 mg/kg/injection, schedule: Q01DX001 (ip), vehicle: saline 93 % of control | dose: 300.0 mg/kg/injection, schedule: Q01DX001 (ip), vehicle: saline 87 % of control

Nc1ccc2ccccc2c1N=Nc1ccc(C(O)C(N)CO)cc1 (configuration not stated)
inactive: dose: 6.25 mg/kg/injection, schedule: Q04DX003 (ip), vehicle: saline with Tween-80 100 % of control | dose: 12.5 mg/kg/injection, schedule: Q04DX003 (ip), vehicle: saline with Tween-80 96 % of control | dose: 25.0 mg/kg/injection, schedule: Q04DX003 (ip), vehicle: saline with Tween-80 94 % of control

O=[N+]([O-])c1ccc2nc(CC(O)(C(F)(F)F)C(F)(F)F)ccc2c1
inactive: [3] 112 % of control | [4] 102 % of control | [10] 110 % of control | [5] 97 % of control | [11] 101 % of control | [6] 113 % of control
